Laboratory results reported in patent US11530244B2, “Cyclic polypeptides for PCSK9 inhibition” (priority 2018, dated 2022).
Starred links: 1 amine or outer side, 2 acyl side, 3 side chain; linkers in the order of their positions; H or OH if unused. Positions of bridges follow the written chain, without caps; N, C: chain ends. Non-standard residues stand in square brackets, D forms with d. Residues, ends and D or L forms follow the SMILES beside them. Groups on a side chain read outwards from the residue. ξ: configuration not given here. *: point of attachment. Trp(βS-Me) = C[C@@H](c1c[nH]c2ccccc12)[C@H](N)C(=O)O; 2Furoyl(5-aminomethyl) = O=C(c1ccc(CN[*:1])o1)[*:2]; Phe(4-guanidino) = N=C(N)Nc1ccc(C[C@H](N)C(=O)O)cc1; NHCH2C6H4(p)CH2CH2NH = c1cc(CN[*:1])ccc1CCN[*:2]; Ala(imidazol-2-yl) = N[C@@H](Cc1ncc[nH]1)C(=O)O; Trp(5-OH) = N[C@@H](Cc1c[nH]c2ccc(O)cc12)C(=O)O; Phe(4-COOH) = N[C@@H](Cc1ccc(C(=O)O)cc1)C(=O)O; Trp(5-F) = N[C@@H](Cc1c[nH]c2ccc(F)cc12)C(=O)O; Phe(4-CH2NH2) = NCc1ccc(C[C@H](N)C(=O)O)cc1; Nle(6-COOH) = N[C@@H](CCCCC(=O)O)C(=O)O; X4 = O=C(CCSCc1cccc(CSCCN[*:1])c1)[*:2]; γGlu = O=C(O)[C@H](CCC(=O)[*:2])N[*:1]; mXylylene = c1cc(C[*:1])cc(C[*:2])c1; AEF = NCCOc1ccc(C[C@H](N)C(=O)O)cc1; X48 = CC(N[*:1])c1ncc(C(=O)[*:2])s1; Adipoyl = O=C(CCCCC(=O)[*:2])[*:1]; Palmitoyl = CCCCCCCCCCCCCCCC(=O)*; X6 = O=C(Cc1ccc(CN[*:2])cc1)[*:1]; Asu = N[C@@H](CCCCCC(=O)O)C(=O)O; ξAla(CF3) = NC(CC(F)(F)F)C(=O)O; Aad = N[C@@H](CCCC(=O)O)C(=O)O; Aoc(2) = CCCCCC[C@H](N)C(=O)O; Suc = O=C(CCC(=O)[*:2])[*:1]; αMeP = C[C@@]1(C(=O)O)CCCN1; Dab = NCC[C@H](N)C(=O)O; Dap = NC[C@H](N)C(=O)O; AEEA = NCCOCCOCC(=O)O; AEA = NCCOCC(=O)O; GABA = NCCCC(=O)O; Mpa = O=C(O)CCS

Biological target: PCSK9 (Homo sapiens (Human), UniProt Q8NBP7)
Sequence (Q8NBP7 153-692): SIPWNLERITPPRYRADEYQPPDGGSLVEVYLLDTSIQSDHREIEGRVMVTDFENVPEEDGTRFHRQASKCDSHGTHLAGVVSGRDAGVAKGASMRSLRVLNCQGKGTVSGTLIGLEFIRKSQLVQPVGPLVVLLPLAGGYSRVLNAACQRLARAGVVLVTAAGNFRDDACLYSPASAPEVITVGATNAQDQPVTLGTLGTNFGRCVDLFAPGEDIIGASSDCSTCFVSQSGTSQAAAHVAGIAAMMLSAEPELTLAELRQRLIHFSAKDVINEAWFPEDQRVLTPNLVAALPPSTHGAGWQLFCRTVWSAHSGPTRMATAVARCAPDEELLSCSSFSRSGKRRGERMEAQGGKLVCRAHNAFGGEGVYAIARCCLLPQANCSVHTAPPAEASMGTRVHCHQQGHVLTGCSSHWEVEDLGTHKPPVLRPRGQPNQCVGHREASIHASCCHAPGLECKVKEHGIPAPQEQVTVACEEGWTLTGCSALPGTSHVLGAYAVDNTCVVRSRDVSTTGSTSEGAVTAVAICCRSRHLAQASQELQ
Experiment: PCSK9 Alexa FRET Standard assay (displacement of AlexaFluor647 tagged cyclic peptide Reagent A)
Format: binding
Conditions: PCSK9 Alexa FRET Standard assay, 0.5 nM PCSK9, 20 nM AF cyclic peptide Reagent A; read-out: IC50
Outline: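 TR-FRET displacement: 0.5 nM biotinylated PCSK9 with 1.25 nM Strep-Eu and 20 nM AlexaFluor-tagged cyclic peptide (final) in 50 mM HEPES pH 7.4, 0.15 M NaCl, 5 mM CaCl2, 0.01% BSA, 0.01% P20, ≥2 h at room temperature. IC50 from sigmoidal fit, converted to Ki via peptide KD; falling Eu counts flagged false positives.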

Row | SMILES | IC50 [µM]
1 | CC(=O)N[C@@H]1CCCC/C=C/CO[C@H]2C[C@@H](C(N)=O)N(C2)C(=O)[C@H](Cc2ccc(O)cc2)NC(=O)[C@H](Cc2cnc[nH]2)NC(=O)[C@H](CC(=O)O)NC(=O)[C@H](Cc2c[nH]c3ccc(F)cc23)NC(=O)[C@H](Cc2c[nH]c3ccc(F)cc23)NC(=O)CCNC1=O [Compound 418] | 21 to 50
2 | COc1ccc(C[C@@H]2NC(=O)[C@H](Cc3cnc[nH]3)NC(=O)[C@H](CC(=O)O)NC(=O)[C@H](Cc3c[nH]c4ccc(F)cc34)NC(=O)[C@H](Cc3c[nH]c4ccc(F)cc34)NC(=O)[C@@H](C)NC(=O)[C@H](CCCCN)NC(=O)[C@@H](NC(C)=O)CCC(=O)NCc3ccc(cc3)CCNC(=O)[C@]3(C)CCCN3C2=O)cc1 [Compound 421] (Ac-EK[dA][Trp(5-F)][Trp(5-F)]DHY(Me)[αMeP]; linker 1-C via NHCH2C6H4(p)CH2CH2NH) | 0.1 to 1
3 | COc1ccc(C[C@@H]2NC(=O)[C@H](Cc3cnc[nH]3)NC(=O)[C@H](CC(=O)O)NC(=O)[C@H](Cc3c[nH]c4ccc(F)cc34)NC(=O)[C@H](Cc3c[nH]c4ccc(F)cc34)NC(=O)[C@@H](C)NC(=O)[C@H](CNC(=O)COCCN)NC(=O)CCSCc3cccc(c3)CSCCNC(=O)[C@]3(C)CCCN3C2=O)cc1 [Compound 424] (cyclo(DHY(Me)[αMeP][X4][Dap](AEA)[dA][Trp(5-F)][Trp(5-F)])) | 0.00011 to 0.1
4 | COc1ccc(C[C@@H]2NC(=O)[C@H](Cc3cnc[nH]3)NC(=O)[C@H](CC(=O)O)NC(=O)[C@H](Cc3c[nH]c4ccc(F)cc34)NC(=O)[C@H](Cc3c[nH]c4ccc(F)cc34)NC(=O)[C@@H](C)NC(=O)[C@H](CCCCC(=O)O)NC(=O)CCSCc3cccc(c3)CSCCNC(=O)[C@]3(C)CCCN3C2=O)cc1 [Compound 425] (cyclo(DHY(Me)[αMeP][X4][Nle(6-COOH)][dA][Trp(5-F)][Trp(5-F)])) | 0.00011 to 0.1
5 | COc1ccc(C[C@@H]2NC(=O)[C@H](Cc3cnc[nH]3)NC(=O)[C@H](CC(=O)O)NC(=O)[C@H](Cc3c[nH]c4ccc(F)cc34)NC(=O)[C@H](Cc3c[nH]c4ccc(F)cc34)NC(=O)[C@@H](C)NC(=O)[C@H](CCCCCC(=O)O)NC(=O)CCSCc3cccc(c3)CSCCNC(=O)[C@]3(C)CCCN3C2=O)cc1 [Compound 426] (cyclo([Asu][dA][Trp(5-F)][Trp(5-F)]DHY(Me)[αMeP][X4])) | 1 to 12.1
6 | COc1ccc(C[C@@H]2NC(=O)[C@H](Cc3cnc[nH]3)NC(=O)[C@H](CC(=O)O)NC(=O)[C@H](Cc3c[nH]c4ccc(F)cc34)NC(=O)[C@H](Cc3c[nH]c4ccc(F)cc34)NC(=O)[C@@H](C)NC(=O)[C@H](CCCC(=O)O)NC(=O)CCSCc3cccc(c3)CSCCNC(=O)[C@]3(C)CCCN3C2=O)cc1 [Compound 427] (cyclo([Aad][dA][Trp(5-F)][Trp(5-F)]DHY(Me)[αMeP][X4])) | 21 to 50
7 | C[C@@H](c1c[nH]c2ccccc12)[C@@H]1NC(=O)CNC(=O)[C@H](CCCCN)NC(=O)CCSCc2cccc(c2)CSC[C@@H](C(N)=O)NC(=O)[C@]2(C)CCCN2C(=O)[C@H](Cc2ccc(O)cc2)NC(=O)[C@H](Cc2cnc[nH]2)NC(=O)[C@H](CC(=O)O)NC(=O)[C@H](Cc2c[nH]c3ccc(F)cc23)NC1=O [Compound 430] ([Mpa]KG[Trp(βS-Me)][Trp(5-F)]DHY[αMeP]C-NH2; linker 1-10 via mXylylene) | 1 to 12.1
8 | CC(=O)N[C@H]1CCCC/C=C/CO[C@H]2C[C@@H](C(N)=O)N(C2)C(=O)[C@H](Cc2ccc(O)cc2)NC(=O)[C@H](Cc2cnc[nH]2)NC(=O)[C@H](CC(=O)O)NC(=O)[C@H](Cc2c[nH]c3ccc(F)cc23)NC(=O)[C@H](Cc2c[nH]c3ccc(F)cc23)NC(=O)CNC(=O)[C@H](CCCCN)NC1=O [Compound 431] | 0.00011 to 0.1
9 | COc1ccc(C[C@@H]2NC(=O)[C@H](Cc3cnc[nH]3)NC(=O)[C@H](CC(=O)O)NC(=O)[C@H](Cc3c[nH]c4ccc(F)cc34)NC(=O)[C@H](Cc3c[nH]c4ccc(F)cc34)NC(=O)[C@@H](C)NC(=O)CCCNC(=O)c3ccc(cc3)C[C@@H](C(N)=O)NC(=O)[C@]3(C)CCCN3C2=O)cc1 [Compound 432] ([GABA][dA][Trp(5-F)][Trp(5-F)]DHY(Me)[αMeP][Phe(4-COOH)]-NH2; lactam N-9) | 1 to 12.1
10 | COc1ccc(C[C@@H]2NC(=O)[C@H](Cc3cnc[nH]3)NC(=O)[C@H](CC(=O)O)NC(=O)[C@H](Cc3c[nH]c4ccc(F)cc34)NC(=O)[C@H](Cc3c[nH]c4ccc(F)cc34)NC(=O)[C@@H](C)NC(=O)[C@H](NC(C)=O)CCCCNC(=O)Cc3ccc(cc3)CNC(=O)CCC[C@@H](C(N)=O)NC(=O)[C@]3(C)CCCN3C2=O)cc1 [Compound 433] (Ac-[dK][dA][Trp(5-F)][Trp(5-F)]DHY(Me)[αMeP][Aad]-NH2; linker 1-9 via X6) | 0.1 to 1
11 | NC(=O)[C@@H]1Cc2ccc(cc2)CNC(=O)CCCCC(=O)NCC(=O)N[C@@H](Cc2c[nH]c3ccc(F)cc23)C(=O)N[C@@H](Cc2c[nH]c3ccc(F)cc23)C(=O)N[C@@H](CC(=O)O)C(=O)N[C@@H](Cc2cnc[nH]2)C(=O)N[C@@H](Cc2ccc(O)cc2)C(=O)N1 [Compound 438] (G[Trp(5-F)][Trp(5-F)]DHY[Phe(4-CH2NH2)]-NH2; linker N-7 via Adipoyl) | 21 to 50
12 | CCCCCCCCCCCCCCCC(=O)N[C@@H](CCC(=O)NCCOCCOCC(=O)NCCOCCOCC(=O)NCC[C@H](NC(=O)CNC(=O)CNC(=O)[C@@H]1CSCc2cccc(c2)CSCCC(=O)N[C@@H](CCCCN)C(=O)N[C@H](C)C(=O)N[C@@H](Cc2c[nH]c3ccc(F)cc23)C(=O)N[C@@H](Cc2c[nH]c3ccc(F)cc23)C(=O)N[C@@H](CC(=O)O)C(=O)N[C@@H](Cc2cnc[nH]2)C(=O)N[C@@H](Cc2ccc(O)cc2)C(=O)N2CCC[C@@]2(C)C(=O)N1)C(N)=O)C(=O)O [Compound 439] ([Mpa]K[dA][Trp(5-F)][Trp(5-F)]DHY[αMeP]CGG[Dab]([AEEA-AEEA-γGlu-Palmitoyl])-NH2; linker 1-10 via mXylylene) | 21 to 50

The remaining lines, values ahead:

Row | IC50 [µM] | SMILES
13 | 0.00011 to 0.1 | C[C@@]12CCCN1C(=O)[C@H](Cc1ccc(O)cc1)NC(=O)[C@H](Cc1cnc[nH]1)NC(=O)[C@H](CC(=O)O)NC(=O)[C@H](Cc1c[nH]c3ccc(O)cc13)NC(=O)[C@H](Cc1c[nH]c3ccc(O)cc13)NC(=O)CNC(=O)[C@H](CCCCN)NC(=O)CCSCc1cccc(c1)CSC[C@@H](C(N)=O)NC2=O [Compound 415] ([Mpa]KG[Trp(5-OH)][Trp(5-OH)]DHY[αMeP]C-NH2; linker 1-10 via mXylylene)
14 | 21 to 50 | C[C@@]12CCCN1C(=O)[C@H](Cc1ccc(O)cc1)NC(=O)[C@H](Cc1cnc[nH]1)NC(=O)[C@H](CC(=O)O)NC(=O)[C@H](Cc1c[nH]c3ccc(F)cc13)NC(=O)[C@H](Cc1c[nH]c3ccc(F)cc13)NC(=O)C1=CC=C(CNC(=O)CCSCc3cccc(c3)CSC[C@@H](C(N)=O)NC2=O)O1 [Compound 428] ([Mpa][2Furoyl(5-aminomethyl)][Trp(5-F)][Trp(5-F)]DHY[αMeP]C-NH2; linker 1-9 via mXylylene)
15 | 0.1 to 1 | C[C@H]1NC(=O)[C@H](CCCCN)NC(=O)CCSCc2cccc(c2)CSC[C@@H](C(N)=O)NC(=O)[C@]2(C)CCCN2C(=O)[C@H](Cc2ccc(O)cc2)NC(=O)C2=CC=C(CNC(=O)[C@H](Cc3c[nH]c4ccc(F)cc34)NC(=O)[C@H](Cc3c[nH]c4ccc(F)cc34)NC1=O)O2 [Compound 429] ([Mpa]K[dA][Trp(5-F)][Trp(5-F)][2Furoyl(5-aminomethyl)]Y[αMeP]C-NH2; linker 1-9 via mXylylene)
16 | 21 to 50 | CC1NC(=O)CCSCc2cccc(c2)CSC[C@@H](C(N)=O)NC(=O)[C@]2(C)CCCN2C(=O)[C@H](Cc2ccc(O)cc2)NC(=O)[C@H](Cc2cnc[nH]2)NC(=O)[C@H](CC(=O)O)NC(=O)[C@H](Cc2c[nH]c3ccc(F)cc23)NC(=O)[C@H](Cc2c[nH]c3ccc(F)cc23)NC(=O)C2=CN=C1S2 (some centres unmarked) [Compound 434] ([Mpa][X48][Trp(5-F)][Trp(5-F)]DHY[αMeP]C-NH2; linker 1-9 via mXylylene)
17 | 21 to 50 | COc1ccc(C[C@@H]2NC(=O)[C@H](Cc3cnc[nH]3)NC(=O)[C@H](CC(=O)O)NC(=O)[C@H](Cc3c[nH]c4ccc(F)cc34)NC(=O)[C@H](Cc3c[nH]c4ccc(F)cc34)NC(=O)[C@@H](C)NC(=O)CCC(=O)NCCOc3ccc(cc3)C[C@@H](C(N)=O)NC(=O)[C@]3(C)CCCN3C2=O)cc1 [Compound 436] ([dA][Trp(5-F)][Trp(5-F)]DHY(Me)[αMeP][AEF]-NH2; linker N-8 via Suc)
18 | 21 to 50 | COc1ccc(C[C@@H]2NC(=O)[C@H](Cc3ncc[nH]3)NC(=O)[C@H](CC(=O)O)NC(=O)[C@H](Cc3c[nH]c4ccc(F)cc34)NC(=O)[C@H](Cc3c[nH]c4ccc(F)cc34)NC(=O)[C@@H](C)NC(=O)[C@H](Cc3ccc(N=C(N)N)cc3)NC(=O)CCSCc3cccc(c3)CSCCNC(=O)[C@]3(C)CCCN3C2=O)cc1 [Compound 441] (cyclo(D[Ala(imidazol-2-yl)]Y(Me)[αMeP][X4][Phe(4-guanidino)][dA][Trp(5-F)][Trp(5-F)]))
19 | 0.00011 to 0.1 | CCCCCC[C@@H]1NC(=O)CCSCc2cccc(c2)CSCCNC(=O)[C@]2(C)CCCN2C(=O)[C@H](Cc2ccc(OC)cc2)NC(=O)[C@H](Cc2ncc[nH]2)NC(=O)[C@H](CC(=O)O)NC(=O)[C@H](Cc2c[nH]c3ccc(F)cc23)NC(=O)[C@H](Cc2c[nH]c3ccc(F)cc23)NC(=O)[C@@H](C)NC1=O [Compound 442] (cyclo([Aoc(2)][dA][Trp(5-F)][Trp(5-F)]D[Ala(imidazol-2-yl)]Y(Me)[αMeP][X4]))
20 | 21 to 50 | COc1ccc(C[C@@H]2NC(=O)[C@H](Cc3ncc[nH]3)NC(=O)[C@H](CC(=O)O)NC(=O)[C@H](Cc3c[nH]c4ccc(F)cc34)NC(=O)[C@H](Cc3c[nH]c4ccc(F)cc34)NC(=O)[C@@H](C)NC(=O)C(CC(F)(F)F)NC(=O)CCSCc3cccc(c3)CSCCNC(=O)[C@]3(C)CCCN3C2=O)cc1 (some centres unmarked) [Compound 443] (cyclo(D[Ala(imidazol-2-yl)]Y(Me)[αMeP][X4][ξAla(CF3)][dA][Trp(5-F)][Trp(5-F)]))
